Assay results from patent publication US20080118437A1, “Diagnosis and treatment O prostate cancer” (Regents of the University of Michigan, priority 2006, published 2008).

Experiments:
PC-3 cells = test: Fluorescence-based migration assay toward hrMCP-1; format: cell-based, human; settings: MCP-1 1-100 ng/mL
Method: (§1) Flouresence-based Migration Assay—Cell migration was assessed using the Innocyte Cell Migration Assay (Calbiochem, Inc.) following the manufacturer's instructions. Briefly, increasing concentrations of MCP-1 (1-100 ng/mL) in the presence and absence of CCR2 inhibitors or neutralizing antibodies were added to the lower chamber of a 96 well plate. Cells were harvested by 0.5 μM EDTA release and resuspended at 2.5×10^5 cells/mL in serum free media. 2.5×10^4 cells were added to the upper chamber and allowed to migrate through the membrane with 8 μm pores for 24 hours at 37° C. and 5% CO2 atmosphere. Cells that migrated through the membrane were detached and labeled with Calcein AM and fluorescence was measured using fluorescent plate reader with excitation wavelength of 485 nm and emission wavelength of 520 nm. The experiments were repeated twice and each conditioned was performed in quadruplicate in each experiment.

VCaP cells = test: Fluorescence-based migration assay toward hrMCP-1; format: cell-based, human; settings: MCP-1 1-100 ng/mL
Method: as §1

PC-3Luc cells [1] = test: Bioluminescent in vivo model of metastasis (Examples 1 and 2); set-up: species or system male SCID mice; settings: Day 35; 2 mg/Kg twice weekly i.p. from Day 14
Method: Bioluminescent in vivo model of metastatsis—Bioluminescent imaging of PC-3^Luc was preformed as previously described through The University of Michigan Small Animal Imaging Resource facility (MSAIR) (Kalikin 2003). Briefly, PC-3Luc cells were introduced into male SCID mice (5-6 wks) by intracardiac injections. Mice were serially imaged weekly for 6 weeks using a CCD IVIS™ system using a 50 mm lens (Xenogen Corp, Alameda, Calif.) and the results were analyzed using […] software (Xenogen Corp.). Mice were separated into one of five groups; 1) PBS control, 2) anti-hIgG control human antibody, 3) anti-cVaM control mouse antibody, 4) anti-MCP1 (human), 5) anti-MCP1/JE (mouse). Treatment began at week 2 post-intracardiac injection and mice received 2 mg/Kg antibody twice weekly by intraperitoneal injection. Mice were injected with luciferin (40 mg/mL) intraperitoneally and ventral images were acquired 15 min post-injection under 1.75% isofluorane/air anesthesia. Total tumor burden of each animal was calculated using regions of interest (ROIs) that encompassed the entire animal. Animals were sacrificed after week 6 image and individual organs were harvested and immediately placed in formalin.

PC-3Luc cells [2] = test: Bioluminescent in vivo model of metastasis (Example 4, antibodies and/or docetaxel); set-up: species or system male SCID mice
Method: Bioluminescent imaging of PC-3Luc was preformed as previously described through The University of Michigan Small Animal Imaging Resource facility (MSAIR) (Loberg et al., 2006. Neoplasia. 8:578-586). Briefly, PC-3Luc cells were introduced into male SCID mice (5-6 wks of age) by intracardiac injections. Mice were serially imaged weekly for up to 12 weeks using a CCD IVIS system using a 50 mm lens (Xenogen Corp, Alameda, Calif.) and the results were analyzed using LIVING IMAGE software (Xenogen Corp.). Mice were separated into groups and treatment began at week 2 post-intracardiac injection and mice received 2 mg/Kg antibody twice weekly by intraperitoneal (i.p.) injection (for up to eight weeks) and/or 40 mg/Kg Taxotere i.p. injection once per week for three weeks. Mice were injected with luciferin (40 mg/mL) intraperitoneally and ventral images were acquired 15 min postinjection under 1.75% isofluorane/air anesthesia. Total tumor burden of each animal was calculated using regions of interest (ROIs) that encompassed the entire animal. Animals were sacrificed after week 6 image and individual organs were harvested and immediately placed in formalin.

CNTO888: human IgG1κ antibody that neutralizes human CCL2
effect on MCP-1 induced dose dependent migration of PC-3 cells (PC-3 cells): attenuated
effect on MCP-1 induced dose dependent migration of VCaP cells (VCaP cells): attenuated
reduction in overall tumor burden compared to control antibody (PC-3Luc cells [1]): 46.52%
reduction in overall tumor burden compared to control antibody (PC-3Luc cells [2]; Day 35, 2 mg/Kg twice weekly i.p. for three weeks from Day 14): 46.52%
reduction in tibia-specific tumor burden (PC-3Luc cells [2]; Day 35, compared to control antibody): 45.49%
animals of group counted at Wk 6 (tumor regression, Table 2) (PC-3Luc cells [2]; Wk 6 = First week after cessation of Taxotere): 1 of 9
total tumor burden at Day 35 (PC-3Luc cells [2]; antibodies 2 mg/Kg i.p. twice weekly, docetaxel 40 mg/Kg i.p.): 52.78 % of PBS-treated animals
